Test results as given in patent publication US20130096088A1, “Inhibitors of Protein Tyrosine Kinase Activity” (METHYLGENE INC., priority 2011, published 2013).
Like-named read-outs stand apart in the source and are kept apart here.

Columns and labels:
VEGFR2 (KDR) = molecular target: T1, VEGFR2 (KDR) (Homo sapiens, UniProt P35968); test: In vitro receptor tyrosine kinase assay (VEGF receptor KDR), DELFIA; assay type: biochemical; details: recombinant GST-VEGFR2 806-1356, ATP 0.6 uM; read-out: VEGFR IC50UM
T1 construct: made in house; host or cells: Sf9 cells (Spodoptera frugiperda), baculovirus
Text: In Vitro Receptor Tyrosine Kinase Assay (VEGF Receptor KDR)
This test measures the ability of compounds to inhibit the enzymatic activity of recombinant human VEGF receptor enzymatic activity.
A 1.6-kb cDNA corresponding to the catalytic domain of VEGFR2 (KDR) (Genbank accession number AF035121 amino acid 806 to 1356) is cloned into the Pst I site of the pDEST20 Gateway vector (Invitrogen) for the production of a GST-tagged version of that enzyme. This construct is used to generate recombinant baculovirus using the Bac-to-Bac™ system according to the manufacturer's instructions (Invitrogen).
The GST-VEGFR2806-1356 protein is expressed in Sf9 cells (Spodoptera frugiperda) upon infection with recombinant baculovirus construct. Briefly, Sf9 cells grown in suspension and maintained in serum-free medium (Sf900 II supplemented with gentamycin) at a cell density of about 2×10^6 cells/ml are infected with the above-mentioned viruses at a multiplicity of infection (MOI) of 0.1 during 72 hours at 27° C. with agitation at 120 rpm on a rotary shaker. Infected cells are harvested by centrifugation at 398 g for 15 min. Cell pellets are frozen at −80° C. until purification is performed.
All steps described in cell extraction and purification are performed at 4° C. Frozen Sf9 cell pellets infected with the GST-VEGFR2806-1356 recombinant baculovirus are thawed and gently resuspended in Buffer A (PBS pH 7.3 supplemented with 1 μg/ml pepstatin, 2 μg/ml Aprotinin and leupeptin, 50 μg/ml PMSF, 50 μg/ml TLCK and 10 μM E64 and 0.5 mM DTT) using 3 ml of buffer per gram of cells. Suspension is Dounce homogenized and 1% Triton X-100 is added to the homogenate after which it is centrifuged at 22500 g, 30 min., 4° C. The supernatant (cell extract) is used as starting material for purification of GST-VEGFR2806-1356.
The supernatant is loaded onto a GST-agarose column (Sigma) equilibrated with PBS pH 7.3. Following a four column volume (CV) wash with PBS pH 7.3+1% Triton X-100 and 4 CV wash with buffer B (50 mM Tris pH 8.0, 20% glycerol and 100 mM NaCl), bound proteins are step eluted with 5 CV of buffer B supplemented with 5 mM DTT and 15 mM glutathion. GST-VEGFR2806-1356 enriched fractions from this chromatography step are pooled based on U.V. trace i.e. fractions with high O.D.280. Final GST-VEGFR2806-1356 protein preparations concentrations are about 0.7 mg/ml with purity approximating 70%. Purified GST-VEGFR2806-1356 protein stocks are aliquoted and frozen at −80° C. prior to use in enzymatic assay.
Inhibition of VEGFR/KDR is measured in a DELFIA™ assay (Perkin Elmer). The substrate poly(Glu4,Tyr) is immobilized onto black high-binding polystyrene 96-well plates. The coated plates are washed and stored at 4° C. During the assay, the enzyme is pre-incubated with inhibitor and Mg-ATP on ice in polypropylene 96-well plates for 4 minutes, and then transferred to the coated plates. The subsequent kinase reaction takes place at 30° C. for 10-30 minutes. ATP concentrations in the assay are 0.6 uM for VEGFR/KDR (2× the Km). Enzyme concentration is 5 nM. After incubation, the kinase reactions are quenched with EDTA and the plates are washed. Phosphorylated product is detected by incubation with Europium-labeled anti-phosphotyrosine MoAb. After washing the plates, bound MoAb is detected by time-resolved fluorescence in a Gemini SpectraMax reader (Molecular Devices). Compounds are evaluated over a range of concentrations, and IC50 values (concentration of compounds giving 50% inhibition of enzymatic activity) are determined.

[1] = test system: laser-induced choroidal neovascularization (CNV); test: In vivo choroidal neovascularization (CNV) model; parameters: species or system rat; details: Brown-Norway rats, injection on Day 3, CNV area on Day 10
Text: In Vivo Choroidal Neovascularization (CNV) Model This test measures the capacity of compounds to inhibit CNV progression. CNV is the main cause of severe vision loss in patients suffering from age-related macular degeneration (AMD). Male Brown-Norway rats (Charles River Japan Co., Ltd.) were used in these studies. Rats were anesthetized by intraperitoneal injection of pentobarbital, and the right pupil was dilated with 0.5% tropicamide and 0.5% phenylephrine hydrochloride. The right eye received 6 laser burns between retinal vessels using a slit lamp delivery system of Green laser Photocoagulator (Nidex Inc., Japan), and microscope slide glass with 10 mg/mL hyaluronic acid (SIGMA) used as a contact lens. The laser power was 200 mW for 0.1 second and spot diameter was 100 μm. At the time of laser burn, bubble production was observed; which is an indication of rupture of Bruch's membrane which is important for CNV generation. After animals were anesthetized, and the right pupil dilated (as mentioned above), the right eye of the animal received the compound or vehicle by an injection (3 μL/eye) at doses of 3 or 10 nmol/eye on Day 3. The compounds were dissolved or suspended in CBS, PBS, or other adequate vehicles before injection. On Day 10, the animals were anesthetized with ether, and high molecular weight fluorescein isothiocyanate (FITC)-dextran (SIGMA, 2×10^6 MW) was injected via a tail vein (20 mg/rat). About 30 min after FITC-dextran injection, animals were euthanized by ether or carbon dioxide, and the eyes were removed and fixed with 10% formaline neutral buffer solution. After over 1 hour of fixation, RPE-choroid-sclera flat mounts were obtained by removing cornea, lens and retina from the eyeballs. The flat mounts were mounted in 50% glycerol on a microscope slide, and the portion burned by laser was photographed using a fluorescence microscope (Nikon Corporation, excitation filter: 465-495 nm, absorption filter: 515-555 nm). The CNV area was obtained by measurement of hyper-fluorescence area observed on the photograph using Scion image. The average CNV area of 6 burns was used as an individual value of CNV area, and the average CNV area of compound treated group was compared with that of the vehicle-treated group.

[2] = test system: phospho ERK1/2 (T202/Y204) in HUVEC cells; test: VEGF-dependent Erk phosphorylation; assay type: cell-based; details: VEGF165 150 ng/ml, Western blot, read-out: P_ERK IC50UM
Text: VEGF-Dependent Erk Phosphorylation
HUVEC cells are purchased from Cambrex Bio Science Walkersville, Inc and cultured according to the vendor's instructions. The full-length coding sequence of VEGF165 is cloned using the Gateway Cloning Technology (Invitrogen) for baculovirus expression Sf9 cells. VEGF165 is purified from conditioned media using a NaCl gradient elution from a HiTrap heparin column (GE Healthcare Life Sciences) followed by an imidazole gradient elution from a HiTrap chelating column (GE Healthcare Life Sciences), then buffer stored in PBS supplemented with 0.1% BSA and filter sterilized
Cells are seeded at 8000 cells/well of a 96 wells plate and grown for 48 hours. Cells are then grown overnight in serum and growth factor-free medium and exposed for 1.5 h to compounds dilutions. Following a 15 min incubation in medium, VEGF165 (150 ng/ml) cells are lysed in ice-cold lysis buffer (50 mM HEPES, pH 7.4, 150 mM NaCl, 1.5 mM MgCl2, 1% Triton X-100, 10% glycerol) containing 1 mM 4-(2 aminoethyl)benzenesulfonyl fluoride hydrochloride, 200 μM sodium orthovanadate, 1 mM sodium fluoride, 10 μg/mL leupeptin, 10 μg/mL aprotinin, 1 μg/mL pepstatin and 50 μg/mL Na-p-tosyl-L-lysine chloromethyl ketone hydrochloride and processed as Western blots to detect anti-phospho ERK1/2 (T202/Y204) (Cell Signaling Technologies).
lysates samples from single treatment wells are separated on 5-20% SDS-PAGE gels and immunobloting is performed using Immobilon polyvinylidene difluoride membranes (Amersham) according to the manufacturer's instructions. The blots are washed in Tris-buffered saline with 0.1% Tween 20 detergent (TBST) and probed for antibodies against phospho-Thr202/Tyr204-ERK (Cell signaling technologies. Chemiluminescence detection (Amersham, ECL plus) is performed according to the manufacturer's instructions using a Storm densitometer (GE Healthcare; 800 PMT, […]) for imaging and densitometry analysis. Values of over the range of dilution are used to prepare IC50 curves using a 4-parameter fit model. These curves are calculated using GraFit

[3] = Rattus norvegicus, 240 h, dose 3 nmol/eye, read-out: Inhibition of CNV Progression (%)

T1 sequence (P35968 806-1356): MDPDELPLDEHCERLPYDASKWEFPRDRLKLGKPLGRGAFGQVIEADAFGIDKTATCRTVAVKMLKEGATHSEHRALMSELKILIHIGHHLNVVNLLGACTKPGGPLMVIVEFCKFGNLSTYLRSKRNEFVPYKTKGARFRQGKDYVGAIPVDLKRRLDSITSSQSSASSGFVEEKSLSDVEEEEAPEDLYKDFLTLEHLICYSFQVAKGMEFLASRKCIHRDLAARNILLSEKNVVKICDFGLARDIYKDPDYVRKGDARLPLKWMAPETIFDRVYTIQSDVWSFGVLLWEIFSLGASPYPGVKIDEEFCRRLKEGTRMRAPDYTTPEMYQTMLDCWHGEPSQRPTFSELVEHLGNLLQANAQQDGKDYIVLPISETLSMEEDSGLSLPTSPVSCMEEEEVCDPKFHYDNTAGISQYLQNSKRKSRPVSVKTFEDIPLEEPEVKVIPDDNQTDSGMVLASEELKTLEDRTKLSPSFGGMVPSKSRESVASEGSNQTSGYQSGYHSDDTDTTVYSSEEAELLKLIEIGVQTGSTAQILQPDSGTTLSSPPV

SMILES	IC50 (VEGFR2 (KDR)) [nM]	inhibition in vivo at 3 nmol/eye [1, 3] [%]	IC50 ([2]; Homo sapiens) [nM]	inhibition in vivo at 10 nmol/eye ([1]; Rattus norvegicus, 240 h, dose 10 nmol/eye, read-out: Inhibition of CNV Progression (%)) [%]	IC50 [2] [nM]	Inhibition of CNV Progression (%) ([1]; dose 3 nmol/eye)
O=C(Nc1ccc(Oc2ccnc3cc(-c4ccc(CN5CCN(C(=O)COP(=O)(O)O)CC5)cn4)sc23)c(F)c1)NC1CC1 [Compound 6, 2-(4-((6-(7-(4-(3-Cyclopropylureido)-2-fluorophenoxy)thieno[3,2-b]pyridin-2-yl)pyridin-3-yl)methyl)piperazin-1-yl)-2-oxoethyl dihydrogen phosphate]	9	20.9	0.4			
COCCOCCOCCOCCN1CCN(Cc2ccc(-c3cc4nccc(Oc5ccc(NC(=O)NC6CC6)cc5F)c4s3)nc2)CC1 [Compound 7, 1-(4-(2-(5-((4-(2,5,8,11-Tetraoxamidecan-13-yl)piperazin-1-yl)methyl)pyridin-2-yl)thieno[3,2-b]pyridin-7-yloxy)-3-fluorophenyl)-3-cyclopropylurea]	6	18.1	0.2			
COCCOCCOCCOCCn1cc(-c2cc3nccc(Oc4ccc(NC(=O)NC5CC5)cc4F)c3s2)nn1 [Compound 30, 1-(4-(2-(1-(2,5,8,11-Tetraoxamidecan-13-yl)-1H-1,2,3-triazol-4-yl)thieno[3,2-b]pyridin-7-yloxy)-3-fluorophenyl)-3-cyclopropylurea]	18	26.4	70			
COCCOCCOCCOCCOc1ccc(NCc2ccc(-c3cc4nccc(Oc5ccc(NC(=O)NC6CC6)cc5F)c4s3)nc2)cc1 [Compound 39]	33	24.7	6			
COCCOCCOCCOC(=O)N1CCN(Cc2ccc(-c3cc4nccc(Oc5ccc(NC(=O)NC6CC6)cc5F)c4s3)nc2)CC1 [Compound 50, 2-(2-(2-Methoxyethoxy)ethoxy)ethyl 4-((6-(7-(4-(3-cyclopropylureido)-2-fluorophenoxy)thieno[3,2-b]pyridin-2-yl)pyridin-3-yl)methyl)piperazine-1-carboxylate]	8		0.8	80.6		
COCCOCCOCCOCCOC1CN(Cc2ccc(-c3cc4nccc(Oc5ccc(NC(=O)NC6CC6)cc5F)c4s3)nc2)C1 [Compound 60, 1-(4-(2-(5-((3-(2,5,8,11-tetraoxamidecan-13-yloxy)azetidin-1-yl)methyl)pyridin-2-yl)thieno[3,2-b]pyridin-7-yloxy)-3-fluorophenyl)-3-cyclopropylurea]	10				1.5	
COCCOCCOCCOCCN(C(C)=O)C1CCN(Cc2ccc(-c3cc4nccc(Oc5ccc(NC(=O)NC6CC6)cc5F)c4s3)nc2)CC1 [Compound 65, N-(1-((6-(7-(4-(3-Cyclopropylureido)-2-fluorophenoxy)thieno[3,2-b]pyridin-2-yl)pyridin-3-yl)methyl)piperidin-4-yl)-N-(2,5,8,11-tetraoxamidecan-13-yl)acetamide]	7				2	32.1
COCCOCCOCCOCCN1CCC(N(Cc2ccc(-c3cc4nccc(Oc5ccc(NC(=O)NC6CC6)cc5F)c4s3)nc2)C(C)=O)CC1 [Compound 69, N-(1-(2,5,8,11-Tetraoxamidecan-13-yl)piperidin-4-yl)-N-((6-(7-(4-(3-cyclopropylureido)-2-fluorophenoxy)thieno[3,2-b]pyridin-2-yl)pyridin-3-yl)methyl)acetamide]	12				25	
